In patent publication US20090030017A1, “THERAPEUTIC AGENT FOR DYSKINESIA” (Eisai R & D Management Co., Ltd, priority 2005, published 2009):
Like-named read-outs stand apart in the source and are kept apart here.

Legend:
dyskinesia [1] = settings: cited from earlier work
[2] = tested on: L-DOPA induced dyskinesia; assay: L-DOPA induced dyskinesia model in monkey (MPTP-treated, L-DOPA methylester and benserazide); assay type: in vivo, crab-eating macaques; settings: substance administered 20 minutes before L-DOPA methylester and benserazide, scored every 30 minutes for 5 hours
Method: To male crab-eating macaques, MPTP (1-methyl-4-phenyl-1,2,3,6-tetrahydropyridine) was frequently administered intravenously or subcutaneously in a dose of 0.2 to 1 mg/kg to cause Parkinson's disease.
In order to check the effect of the substance to be tested, i.e., 3-(2-cyanophenyl)-5-(2-pyridyl)-1-phenyl-1,2-dihydropyridine-2-on, the administration dose of L-DOPA methylester was adjusted to control the severity of the dyskinesia to a certain state.
The behavior before the administration of drugs (L-DOPA methylester and benserazide) was recorded, and then the substance to be tested was administered. 20 minutes after that, L-DOPA methylester and benserazide were administered.
The severity of the symptoms of Parkinson's disease was evaluated based on the items shown in Table 1 in a blinded manner, and shown as the total score.
The dyskinesia induced by the side effects of the administration of L-DOPA methylester and benserazide was evaluated based on the items shown in Table 2 in a blinded manner. […]
The symptoms were evaluated in a time-series manner before the administration of the drugs, and every 30 minutes after the administration of the drugs, for a total of 5 hours. The effect of the substance to be tested was determined as follows. […]

dyskinesia [3] = settings: cited from earlier work; remark: listed apart in the source
dyskinesia [4] = settings: rhesus monkey models; cited from earlier work

## CC1(C)O[C@@H]2[C@@H](CO[C@@]3(COS(N)(=O)=O)OC(C)(C)O[C@@H]23)O1 [Topiramate]
Dyskinesia [1]; in vivo
  effect on the symptoms of Parkinson's disease: shows a tendency of deteriorating the symptoms of Parkinson's disease, although not significantly
Dyskinesia [1]; marmoset models
  effect on dyskinesia: has an action of suppressing dyskinesia

## N#Cc1ccccc1-c1cc(-c2ccccn2)cn(-c2ccccc2)c1=O [3-(2-cyanophenyl)-5-(2-pyridyl)-1-phenyl-1,2-dihydropyridine-2-on]
[2]; FIG. 1, significant vs solvent P<0.01
  effect on dyskinesia (dyskinesia score, severity of dyskinesia): provided an dyskinesia suppressing action
[2]; FIG. 2, significant vs solvent P<0.05, P<0.01
  effect on the symptoms of Parkinson's disease (total score): clearly improving the symptoms of Parkinson's disease

## CC(=O)N1N=C(c2ccc(N)cc2)c2cc3c(cc2C[C@H]1C)OCO3 [LY-300164, Talampanel]
Dyskinesia [3]; MPTP-treated monkeys with L-DOPA induced dyskinesia
  effect on dyskinesia: the dyskinesia were improved
Dyskinesia [3]; experiment with the monkeys
  effect on the symptoms of Parkinson's disease (symptom scores): not recognized as having an effect of clearly improving the symptoms of Parkinson's disease

## CCN(CC)Cc1cccc(C=Cc2nc3ccc(F)cc3c(=O)n2-c2ccccc2Cl)n1 [3-(2-chlorophenyl)-2-[2-(6-diethylaminomethylpyridine-2-yl)-vinyl]-6-fluoro-3H-quinazoline-4-on]
Dyskinesia [4]
  effect on dyskinesia: has an effect on dyskinesia
